Measured values taken from ChEMBL document CHEMBL1152402, “Discovery of a new class of catalytic topoisomerase II inhibitors targeting the ATP-binding site by structure based design. Part I” (Bioorg Med Chem Lett, 2009).

Tests used:
[1] = target: T1, DNA topoisomerase 2-alpha (Homo sapiens, UniProt P11388); assay: Inhibition of ATPase activity of human topoisomerase 2 alpha at 10 uM
[2] = target: T1, DNA topoisomerase 2-alpha; assay: Inhibition of ATPase activity of human topoisomerase 2 alpha

T1 sequence (P11388 whole entry): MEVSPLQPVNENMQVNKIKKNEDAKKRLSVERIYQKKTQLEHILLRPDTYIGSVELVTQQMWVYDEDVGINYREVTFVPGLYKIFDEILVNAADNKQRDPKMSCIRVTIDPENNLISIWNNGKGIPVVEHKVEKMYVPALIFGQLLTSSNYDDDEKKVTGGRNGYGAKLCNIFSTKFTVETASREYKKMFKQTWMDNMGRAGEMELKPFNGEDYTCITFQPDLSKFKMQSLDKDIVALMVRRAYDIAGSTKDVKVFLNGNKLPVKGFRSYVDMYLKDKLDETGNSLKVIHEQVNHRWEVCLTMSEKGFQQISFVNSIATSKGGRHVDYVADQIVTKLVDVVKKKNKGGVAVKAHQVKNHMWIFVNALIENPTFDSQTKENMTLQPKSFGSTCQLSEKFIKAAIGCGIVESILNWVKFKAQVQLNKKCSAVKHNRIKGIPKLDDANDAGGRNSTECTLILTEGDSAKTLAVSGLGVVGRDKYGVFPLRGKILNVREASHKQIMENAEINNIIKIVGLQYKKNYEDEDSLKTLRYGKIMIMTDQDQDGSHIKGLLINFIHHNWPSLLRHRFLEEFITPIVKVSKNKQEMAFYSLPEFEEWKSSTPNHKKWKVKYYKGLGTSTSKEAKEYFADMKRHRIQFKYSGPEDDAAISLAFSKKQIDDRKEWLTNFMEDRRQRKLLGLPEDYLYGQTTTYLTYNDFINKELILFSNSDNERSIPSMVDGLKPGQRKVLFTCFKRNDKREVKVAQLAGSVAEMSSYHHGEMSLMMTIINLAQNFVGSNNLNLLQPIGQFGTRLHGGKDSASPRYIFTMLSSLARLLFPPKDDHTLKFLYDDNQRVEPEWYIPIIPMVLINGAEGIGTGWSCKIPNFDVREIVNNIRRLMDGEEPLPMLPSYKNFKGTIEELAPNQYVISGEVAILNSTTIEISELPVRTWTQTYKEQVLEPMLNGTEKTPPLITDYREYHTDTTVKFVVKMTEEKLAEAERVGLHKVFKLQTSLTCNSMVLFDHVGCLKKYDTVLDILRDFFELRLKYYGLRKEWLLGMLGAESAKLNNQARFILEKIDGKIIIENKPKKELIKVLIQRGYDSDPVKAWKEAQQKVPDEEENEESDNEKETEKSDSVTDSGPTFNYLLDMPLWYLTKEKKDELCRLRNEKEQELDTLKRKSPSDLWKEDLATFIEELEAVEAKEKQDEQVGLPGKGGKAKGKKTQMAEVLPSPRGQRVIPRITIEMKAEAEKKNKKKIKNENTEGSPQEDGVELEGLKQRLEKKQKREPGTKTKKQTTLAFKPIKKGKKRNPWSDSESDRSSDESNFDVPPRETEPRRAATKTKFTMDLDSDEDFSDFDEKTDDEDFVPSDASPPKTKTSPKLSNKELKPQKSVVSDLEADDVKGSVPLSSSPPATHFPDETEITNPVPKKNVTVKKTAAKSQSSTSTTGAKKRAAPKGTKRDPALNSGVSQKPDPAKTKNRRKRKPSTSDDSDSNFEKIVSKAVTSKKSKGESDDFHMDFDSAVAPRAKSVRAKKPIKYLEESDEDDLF

| inhibition [1] [%] | IC50 [2] [nM] | Structure (SMILES) |
| --- | --- | --- |
| 7 | – | Cn1cnc2c(NC(C)(C)C)nc(Nc3ccc4ncsc4c3)nc21 |
| – | 1700 | CC(C)(C)Nc1nc(Nc2ccc3ncsc3c2)nc2[nH]cnc12 |
